Test system: skin of the forearms of 10 panelists (stratum corneum)
Test: Testing by Conductance Measurement (rate of skin conductance change)
Assay type: in vivo, human
Settings: for conductance evaluation, 30 minutes / conductance evaluation, 60 minutes / conductance evaluation, 120 minutes: Table 1, 10% aqueous solution; for conductance evaluation, 30 minutes: 30 minutes after application; for conductance evaluation, 60 minutes: 60 minutes after application; for conductance evaluation, 120 minutes: 120 minutes after application
Protocol: “Testing by Conductance Measurement” The skin conductance was measured before the application and after 30 minutes, 60 minutes, and 120 minutes of the application on the forearms of 10 panelists. From the rate of change, the moisturizing effect was evaluated. The rate of change of the skin conductance is determined by the following equation (III), and the influences on the water-absorbing property and the moisture-retention ability of the stratum corneum can be investigated. If the rate of change is small, it can be estimated that there is an increase in the water content in the stratum corneum and that the moisturizing effect is high. Rate of conductance change=(conductance before application)/(conductance after application) Equation (III) The evaluation criteria for the “Testing by Conductance Measurement” are as follows. ⊚: Average of the rate of conductance change of 10 panelists: 0 or higher and lower than 0.1 ◯: Average of the rate of conductance change of 10 panelists: 0.1 or higher and lower than 0.2 Δ: Average of the rate of conductance change of 10 panelists: 0.2 or higher and lower than 0.5 X: Average of the rate of conductance change of 10 panelists: 0.5 or higher Initially, the present inventors evaluated the conductance, based on the above-described criteria, for respective 10% aqueous solutions of various moisturizers.

Compound | conductance evaluation, 30 minutes | conductance evaluation, 60 minutes | conductance evaluation, 120 minutes | Conductance measurement evaluation (Table 7, 5 % alone in ion exchanged water 95 %)
CC(O)CCO (stereo not shown) [1,3-butylene glycol] | Δ (Average of the rate of conductance change of 10 panelists: 0.2 or higher and lower than 0.5) | Δ (Average of the rate of conductance change of 10 panelists: 0.2 or higher and lower than 0.5) | Δ (Average of the rate of conductance change of 10 panelists: 0.2 or higher and lower than 0.5) | 
OCC(O)CO [glycerin] | ⊚ (Average of the rate of conductance change of 10 panelists: 0 or higher and lower than 0.1) | ◯ (Average of the rate of conductance change of 10 panelists: 0.1 or higher and lower than 0.2) | ◯ (Average of the rate of conductance change of 10 panelists: 0.1 or higher and lower than 0.2) | Δ (Average of the rate of conductance change of 10 panelists: 0.2 or higher and lower than 0.5)

Reference: patent publication US20090197948A1, “Skin External Preparation” (Shiseido Co., Ltd., priority 2006, published 2009)
